According to patent US20230339937A1, “CONDENSED RING COMPOUNDS THAT INHIBIT H-PGDS” (SATO PHARMACEUTICAL CO., LTD., priority 2020, published 2023):

Target: T1, Recombinant human H-PGDS (Homo sapiens, UniProt O60760)
T1 construct: made in house; host or cells: E. coli
Test: H-PGDS inhibitory activity (prostaglandin D2 production from prostaglandin H2, measured by LC-MS/MS)
Format: biochemical
Settings: recombinant human H-PGDS 1.0 nM expressed in E. coli; prostaglandin H2 25 μM; preincubated 15 minutes on ice, reacted on ice for 1 minute; concentration that inhibits prostaglandin D2 production by 50%
Outline: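 Recombinant human H-PGDS (E. coli-expressed, 1.0 nM final) preincubated with compound 15 min on ice in 20 mM Tris-HCl pH 8.0, 2 mM MgCl2, 2 mM GSH, 0.5 mg/mL γ-globulin. Reaction with 25 µM PGH2 run 1 min on ice, stopped with FeCl2/citric acid, PGD2 quantified by LC-MS/MS. Activity expressed as % of DMSO control after subtracting non-enzymatic PGD2.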

T1 sequence (O60760 whole entry): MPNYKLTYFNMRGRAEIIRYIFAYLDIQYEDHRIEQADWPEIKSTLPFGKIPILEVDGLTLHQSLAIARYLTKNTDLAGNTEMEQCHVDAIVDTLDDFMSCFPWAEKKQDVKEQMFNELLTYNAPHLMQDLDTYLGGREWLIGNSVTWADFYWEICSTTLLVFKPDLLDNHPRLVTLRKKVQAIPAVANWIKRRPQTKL

In the case of O=C(NC1CCN(c2ncc(F)cn2)CC1)c1ccc(-c2nccc3occc23)cc1 [Example 157, N-[1-(5-fluoropyrimidin-2-yl)piperidin-4-yl]-4-(furo[3,2-c]pyridin-4-yl)benzamide], the IC50 is reported as 3 nM.
In the case of CCOC(=O)c1cnc(N2CCC(NC(=O)c3ccc(-c4nccc5occc45)cc3)CC2)nc1 [Example 158, Ethyl 2-{4-[4-(furo[3,2-c]pyridin-4-yl)benzamide]piperidin-1-yl}pyrimidine-5-carboxylate], the IC50 is reported as 0.69 nM.
For O=C(NC1CCN(c2ccnc(F)c2)CC1)c1ccc(-c2nccc3occc23)cc1 [Example 159, N-[1-(2-fluoropyridin-4-yl)piperidin-4-yl]-4-(furo[3,2-c]pyridin-4-yl)benzamide], the IC50 was 1.3 nM.
O=C(NC1CCN(c2ncc(CO)cn2)CC1)c1ccc(-c2nccc3occc23)cc1 [Example 160, 4-(furo[3,2-c]pyridin-4-yl)-N-{1-[5-(hydroxymethyl)pyrimidin-2-yl]piperidin-4-yl}benzamide] gave an IC50 of 2.1 nM.
For CN(C)c1ccnc(N2CCC(NC(=O)c3ccc(-c4nccc5occc45)cc3)CC2)n1 [Example 161, N-{1-[4-(dimethylamino)pyrimidin-2-yl]piperidin-4-yl}-4-(furo[3,2-c]pyridin-4-yl)benzamide], the IC50 was 2 nM.
Work on COc1ccnc(N2CCC(NC(=O)c3ccc(-c4nccc5occc45)cc3)CC2)n1 [Example 162, 4-(furo[3,2-c]pyridin-4-yl)-N-[1-(4-methoxypyrimidin-2-yl)piperidin-4-yl]benzamide] yielded an IC50 of 1.9 nM.
Work on COc1cc(OC)nc(N2CCC(NC(=O)c3ccc(-c4nccc5occc45)cc3)CC2)n1 [Example 163] yielded an IC50 of 2.6 nM.
For N#Cc1ccnc(N2CCC(NC(=O)c3ccc(-c4nccc5occc45)cc3)CC2)n1 [Example 164, N-[1-(4-cyanopyrimidin-2-yl)piperidin-4-yl]-4-(furo[3,2-c]pyridin-4-yl)benzamide], the IC50 was 0.78 nM.
O=C(NC1CCN(c2ccnc(Cl)c2)CC1)c1ccc(-c2nccc3occc23)cc1 [Example 165, N-[1-(2-chloropyridin-4-yl)piperidin-4-yl]-4-(furo[3,2-c]pyridin-4-yl)benzamide] was tested, and the IC50 was 1.3 nM.
In the case of N#Cc1cc(N2CCC(NC(=O)c3ccc(-c4nccc5occc45)cc3)CC2)ccn1 [Example 166, N-[1-(2-cyanopyridin-4-yl)piperidin-4-yl]-4-(furo[3,2-c]pyridin-4-yl)benzamide], the IC50 is reported as 1 nM.
COC(=O)c1ccnc(N2CCC(NC(=O)c3ccc(-c4nccc5occc45)cc3)CC2)n1 [Example 167, Methyl 2-{4-[4-(furo[3,2-c]pyridin-4-yl)benzamide]piperidin-1-yl}pyrimidine-4-carboxylate] gave an IC50 of 1.2 nM.
For COc1cnc(N2CCC(NC(=O)c3ccc(-c4nccc5occc45)cc3)CC2)nc1 [Example 168, 4-(furo[3,2-c]pyridin-4-yl)-N-[1-(5-methoxypyrimidin-2-yl)piperidin-4-yl]benzamide], the IC50 was 1.7 nM.
O=C(NC1CCN(c2ccc(CO)cn2)CC1)c1ccc(-c2nccc3occc23)cc1 [Example 169, 4-(furo[3,2-c]pyridin-4-yl)-N-{1-[5-(hydroxymethyl)pyridin-2-yl]piperidin-4-yl}benzamide] gave an IC50 of 3 nM.
With O=C(NC1CCN(c2cnc(CO)cn2)CC1)c1ccc(-c2nccc3occc23)cc1 [Example 170, 4-(furo[3,2-c]pyridin-4-yl)-N-{1-[5-(hydroxymethyl)pyrazin-2-yl]piperidin-4-yl}benzamide] the IC50 was 6.2 nM.
Work on O=C(NC1CCN(c2ccncn2)CC1)c1ccc(-c2nccc3occc23)cc1 [Example 171, 4-(furo[3,2-c]pyridin-4-yl)-N-[1-(pyrimidin-4-yl)piperidin-4-yl]benzamide] yielded an IC50 of 1.9 nM.
Molecule O=C(NC1CCN(c2cccc(=O)[nH]2)CC1)c1ccc(-c2nccc3occc23)cc1 [Example 172, 4-(furo[3,2-c]pyridin-4-yl)-N-[1-(6-oxo-1,6-dihydropyridin-2-yl)piperidin-4-yl]benzamide] has an IC50 of 2.6 nM.
With N#Cc1cnc(N2CCC(NC(=O)c3ccc(-c4nccc5occc45)cc3)CC2)nc1 [Example 173, N-[1-(5-cyanopyrimidin-2-yl)piperidin-4-yl]-4-(furo[3,2-c]pyridin-4-yl)benzamide] the IC50 was 0.83 nM.
With NC(=O)c1cnc(N2CCC(NC(=O)c3ccc(-c4nccc5occc45)cc3)CC2)nc1 [Example 174, 2-{4-[4-(furo[3,2-c]pyridin-4-yl)benzamide]piperidin-1-yl}pyrimidine-5-carboxamide] the IC50 was 1.1 nM.
NC(=O)c1ccnc(N2CCC(NC(=O)c3ccc(-c4nccc5occc45)cc3)CC2)n1 [Example 175, 2-{4-[4-(furo[3,2-c]pyridin-4-yl)benzamide]piperidin-1-yl}pyrimidine-4-carboxamide] showed an IC50 of 1.3 nM.
Work on NC(=O)c1cc(N2CCC(NC(=O)c3ccc(-c4nccc5occc45)cc3)CC2)ccn1 [Example 176, 4-{4-[4-(furo[3,2-c]pyridin-4-yl)benzamide]piperidin-1-yl}picolinamide] yielded an IC50 of 1.2 nM.
NS(=O)(=O)c1cnc(N2CCC(NC(=O)c3ccc(-c4nccc5occc45)cc3)CC2)nc1 [Example 177, 4-(furo[3,2-c]pyridin-4-yl)-N-[1-(5-sulfamoylpyrimidin-2-yl)piperidin-4-yl]benzamide] was tested, and the IC50 was 1.2 nM.
Work on O=C(NC1CCN(c2nccc(N3CCC3)n2)CC1)c1ccc(-c2nccc3occc23)cc1 [Example 178, N-{1-[4-(azetidin-1-yl)pyrimidin-2-yl]piperidin-4-yl}-4-(furo[3,2-c]pyridin-4-yl)benzamide] yielded an IC50 of 1.9 nM.
With O=C(NC1CCN(c2nccc(=O)[nH]2)CC1)c1ccc(-c2nccc3occc23)cc1 [Example 179, 4-(furo[3,2-c]pyridin-4-yl)-N-[1-(6-oxo-1,6-dihydropyrimidin-2-yl)piperidin-4-yl]benzamide] the IC50 was 0.97 nM.
With O=C(NC1CCN(CC(F)(F)F)CC1)c1ccc(-c2nccc3occc23)cc1 [Example 180, 4-(furo[3,2-c]pyridin-4-yl)-N-[1-(2,2,2-trifluoroethyl)piperidin-4-yl]benzamide] the IC50 was 0.96 nM.
Work on Cc1cc(=O)[nH]c(N2CCC(NC(=O)c3ccc(-c4nccc5occc45)cc3)CC2)n1 [Example 181, 4-(furo[3,2-c]pyridin-4-yl)-N-[1-(4-methyl-6-oxo-1,6-dihydropyrimidin-2-yl)piperidin-4-yl]benzamide] yielded an IC50 of 1.2 nM.
With O=C(NC1CCN(c2ncc(Br)c(=O)[nH]2)CC1)c1ccc(-c2nccc3occc23)cc1 [Example 182, N-[1-(5-bromo-6-oxo-1,6-dihydropyrimidin-2-yl)piperidin-4-yl]-4-(furo[3,2-c]pyridin-4-yl)benzamide] the IC50 was 2.3 nM.
Molecule Cn1c(N2CCC(NC(=O)c3ccc(-c4nccc5occc45)cc3)CC2)nccc1=O [Example 183, 4-(furo[3,2-c]pyridin-4-yl)-N-[1-(1-methyl-6-oxo-1,6-dihydropyrimidin-2-yl)piperidin-4-yl]benzamide] has an IC50 of 1.7 nM.
Cn1c(N2CCC(NC(=O)c3ccc(-c4nccc5occc45)cc3)CC2)cccc1=O [Example 184, 4-(furo[3,2-c]pyridin-4-yl)-N-[1-(1-methyl-6-oxo-1,6-dihydropyridin-2-yl)piperidin-4-yl]benzamide] gave an IC50 of 2.1 nM.
Work on CC(C)(O)c1cnc(N2CCC(NC(=O)c3ccc(-c4nccc5occc45)cc3)CC2)nc1 [Example 185, 4-(furo[3,2-c]pyridin-4-yl)-N-{1-[5-(2-hydroxypropan-2-yl)pyrimidin-2-yl]piperidin-4-yl}benzamide] yielded an IC50 of 1.7 nM.
CC(=O)N1CCC(NC(=O)c2ccc(-c3nccc4occc34)cc2)CC1 [Example 186, N-(1-acetylpiperidin-4-yl)-4-(furo[3,2-c]pyridin-4-yl)benzamide] gave an IC50 of 2.3 nM.
O=C(NC1CCN(c2nccc(CO)n2)CC1)c1ccc(-c2nccc3occc23)cc1 [Example 187, 4-(furo[3,2-c]pyridin-4-yl)-N-{1-[4-(hydroxymethyl)pyrimidin-2-yl]piperidin-4-yl}benzamide] gave an IC50 of 0.8 nM.
With CC(=O)N(C(C)=O)c1cnc(N2CCC(NC(=O)c3ccc(-c4nccc5occc45)cc3)CC2)nc1 [Example 188, N-{1-[5-(N-acetylacetamide)pyrimidin-2-yl]piperidin-4-yl}-4-(furo[3,2-c]pyridin-4-yl)benzamide] the IC50 was 4.3 nM.
Molecule CC(=O)Nc1cnc(N2CCC(NC(=O)c3ccc(-c4nccc5occc45)cc3)CC2)nc1 [Example 189, N-[1-(5-acetamidopyrimidin-2-yl)piperidin-4-yl]-4-(furo[3,2-c]pyridin-4-yl)benzamide] has an IC50 of 2.3 nM.
O=C(NC1CCN(c2cccnn2)CC1)c1ccc(-c2nccc3occc23)cc1 [Example 190, 4-(furo[3,2-c]pyridin-4-yl)-N-[1-(pyridazin-3-yl)piperidin-4-yl]benzamide] showed an IC50 of 0.76 nM.
Molecule O=C(N[C@H]1CCN(c2ncccn2)C1)c1ccc(-c2nccc3occc23)cc1 [Example 191, (S)-4-(furo[3,2-c]pyridin-4-yl)-N-[1-(pyrimidin-2-yl)pyrrolidin-3-yl]benzamide] has an IC50 of 0.63 nM.
O=C(N[C@@H]1CCN(c2ncccn2)C1)c1ccc(-c2nccc3occc23)cc1 [Example 192, (R)-4-(furo[3,2-c]pyridin-4-yl)-N-[1-(pyrimidin-2-yl)pyrrolidin-3-yl]benzamide] gave an IC50 of 7.7 nM.
Work on O=C(N[C@H]1CCN(c2ncc(CO)cn2)C1)c1ccc(-c2nccc3occc23)cc1 [Example 193, (S)-4-(furo[3,2-c]pyridin-4-yl)-N-{1-[5-(hydroxymethyl)pyrimidin-2-yl]pyrrolidin-3-yl}benzamide] yielded an IC50 of 1 nM.
O=C(N[C@H]1CCN(c2ncc(F)cn2)C1)c1ccc(-c2nccc3occc23)cc1 [Example 194, (S)-N-[1-(5-fluoropyrimidin-2-yl)pyrrolidin-3-yl]-4-(furo[3,2-c]pyridin-4-yl)benzamide] was tested, and the IC50 was 0.94 nM.
